Test: Solubility of compound in safety solvent
Type: physicochemical
Settings: for solubility in CHN: cyclohexanone (CHN); for solubility in PGME: propylene glycol monomethyl ether (PGME); for solubility in PGMEA: propylene glycol monomethyl ether acetate (PGMEA)
Procedure: The compounds obtained in Synthesis Examples 1 to 6 and Synthesis 1 to 4 were evaluated for the solubility in propylene glycol monomethyl ether acetate (PGMEA), propylene glycol monomethyl ether (PGME) and cyclohexanone (CHN).
A: 4.0 wt %≦dissolved amount
B: 1.0 wt %≦dissolved amount<4.0 wt %
C: dissolved amount<1.0 wt %

| SMILES | solubility in CHN | solubility in PGME | solubility in PGMEA |
| --- | --- | --- | --- |
| CC(C)c1ccc(C2c3cc(c(O)cc3O)C(c3ccc(C(C)C)cc3)c3cc(c(O)cc3O)C(c3ccc(C(C)C)cc3)c3cc(c(O)cc3O)C(c3ccc(C(C)C)cc3)c3cc2c(O)cc3O)cc1 (stereo not drawn) [CR-1A] | B (1.0 wt %≦dissolved amount<4.0 wt %) | B (1.0 wt %≦dissolved amount<4.0 wt %) | C (dissolved amount<1.0 wt %) |
| CC(C)Cc1ccc(C2c3cc(c(O)cc3O)C(c3ccc(CC(C)C)cc3)c3cc(c(O)cc3O)C(c3ccc(CC(C)C)cc3)c3cc(c(O)cc3O)C(c3ccc(CC(C)C)cc3)c3cc2c(O)cc3O)cc1 (stereo not drawn) [CR-2A] | B (1.0 wt %≦dissolved amount<4.0 wt %) | C (dissolved amount<1.0 wt %) | C (dissolved amount<1.0 wt %) |
| Oc1cc(O)c2cc1C(c1ccc(-c3ccccc3)cc1)c1cc(c(O)cc1O)C(c1ccc(-c3ccccc3)cc1)c1cc(c(O)cc1O)C(c1ccc(-c3ccccc3)cc1)c1cc(c(O)cc1O)C2c1ccc(-c2ccccc2)cc1 (stereo not drawn) [CR-3A] | B (1.0 wt %≦dissolved amount<4.0 wt %) | C (dissolved amount<1.0 wt %) | C (dissolved amount<1.0 wt %) |
| Oc1cc(O)c2cc1C(c1ccc(C3CCCCC3)cc1)c1cc(c(O)cc1O)C(c1ccc(C3CCCCC3)cc1)c1cc(c(O)cc1O)C(c1ccc(C3CCCCC3)cc1)c1cc(c(O)cc1O)C2c1ccc(C2CCCCC2)cc1 (stereo not drawn) [CR-4A] | B (1.0 wt %≦dissolved amount<4.0 wt %) | B (1.0 wt %≦dissolved amount<4.0 wt %) | C (dissolved amount<1.0 wt %) |

— patent US20120164575A1, “CYCLIC COMPOUND, MANUFACTURING METHOD THEREFOR, RADIATION-SENSITIVE COMPOSITION, AND METHOD FOR FORMING A RESIST PATTERN” (MITSUBISHI GAS CHEMICAL COMPANY, INC., priority 2009, published 2012)
